Reference: patent US8304206B2, “Mass spectrometry assays for identifying compounds that activate deacetylases” (Sirtris Pharmaceuticals, Inc., priority 2005, dated 2012)
Like-named read-outs stand apart in the source and are kept apart here.

Key:
SIRT1 [1] = target: T1, SIRT1 (Homo sapiens, UniProt Q96EB6); conditions: Sirt1, FRET; peptide p53 20 mer (aa 372-387) *FL; read-out: NAD Km; cited from earlier work
T1 sequence (Q96EB6 1-747): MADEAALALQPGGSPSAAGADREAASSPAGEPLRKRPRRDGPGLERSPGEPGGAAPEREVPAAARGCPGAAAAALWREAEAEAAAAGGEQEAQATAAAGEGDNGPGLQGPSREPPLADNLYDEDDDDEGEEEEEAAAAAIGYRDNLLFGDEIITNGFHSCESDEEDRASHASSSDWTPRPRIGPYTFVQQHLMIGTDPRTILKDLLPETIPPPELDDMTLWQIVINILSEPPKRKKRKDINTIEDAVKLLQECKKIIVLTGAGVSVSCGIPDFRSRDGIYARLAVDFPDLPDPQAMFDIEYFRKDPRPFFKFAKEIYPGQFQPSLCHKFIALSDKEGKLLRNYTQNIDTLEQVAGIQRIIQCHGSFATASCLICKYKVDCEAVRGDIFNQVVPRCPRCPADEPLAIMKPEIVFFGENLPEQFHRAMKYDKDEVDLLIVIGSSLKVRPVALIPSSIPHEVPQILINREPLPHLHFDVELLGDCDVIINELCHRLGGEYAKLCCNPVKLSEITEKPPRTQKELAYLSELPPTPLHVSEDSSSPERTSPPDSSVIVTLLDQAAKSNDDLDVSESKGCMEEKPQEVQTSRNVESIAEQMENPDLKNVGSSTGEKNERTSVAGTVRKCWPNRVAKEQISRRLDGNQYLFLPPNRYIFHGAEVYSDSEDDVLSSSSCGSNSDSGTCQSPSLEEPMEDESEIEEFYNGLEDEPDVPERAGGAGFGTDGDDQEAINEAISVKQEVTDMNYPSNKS

SIRT1 [2] = target: T1, SIRT1; test: SIRT1 Km for NAD+ (mass spectrometry); format: biochemical; conditions: 50 μM Acetylated Peptide Substrate, 1% DMSO
SIRT1 [3] = target: T1, SIRT1; conditions: Sirt1, Nicotinamide release; peptide p53 19 mer (aa 368-386) no FL; read-out: NAD Km; cited from earlier work
Sirt2 [4] = target: T2, Sirt2 (Homo sapiens, UniProt Q8IXJ6); conditions: Sirt2, FRET; peptide p53 20 mer (aa 372-387) *FL; read-out: NAD Km; cited from earlier work
T2 sequence (Q8IXJ6 1-389): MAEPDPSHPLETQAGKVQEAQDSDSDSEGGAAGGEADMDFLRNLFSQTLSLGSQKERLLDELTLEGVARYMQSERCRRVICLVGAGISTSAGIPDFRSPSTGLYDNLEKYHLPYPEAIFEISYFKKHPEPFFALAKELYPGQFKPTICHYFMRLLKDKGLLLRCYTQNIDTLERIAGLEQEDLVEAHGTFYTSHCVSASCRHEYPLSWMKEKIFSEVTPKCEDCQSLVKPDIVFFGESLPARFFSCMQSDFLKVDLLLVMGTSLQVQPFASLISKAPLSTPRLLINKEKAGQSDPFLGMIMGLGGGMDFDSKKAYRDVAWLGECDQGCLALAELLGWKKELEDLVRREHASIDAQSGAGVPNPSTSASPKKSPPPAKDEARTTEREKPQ

Sirt3 = target: T3, Sirt3 (Homo sapiens, UniProt Q9NTG7); conditions: Sirt3, Fluorescent; peptide p53 (aa 317-320) *FL; read-out: NAD Km; cited from earlier work
T3 sequence (Q9NTG7 1-399): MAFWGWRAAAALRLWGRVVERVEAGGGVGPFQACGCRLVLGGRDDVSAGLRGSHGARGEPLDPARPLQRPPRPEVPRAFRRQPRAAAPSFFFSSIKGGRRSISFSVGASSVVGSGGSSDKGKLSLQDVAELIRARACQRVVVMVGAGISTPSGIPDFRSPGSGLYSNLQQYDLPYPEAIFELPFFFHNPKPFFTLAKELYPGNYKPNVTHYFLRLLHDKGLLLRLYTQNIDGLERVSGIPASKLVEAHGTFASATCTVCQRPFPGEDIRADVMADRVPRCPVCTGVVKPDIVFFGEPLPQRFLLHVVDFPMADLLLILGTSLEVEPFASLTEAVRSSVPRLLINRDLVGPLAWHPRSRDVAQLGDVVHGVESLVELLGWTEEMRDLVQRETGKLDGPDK

SIRT1 [5] = target: T1, SIRT1; conditions: Sirt1, Nicotinamide release, read-out: NAD Km, cited from earlier work
Sirt2 [6] = target: T2, Sirt2; conditions: Sirt2, Fluorescent; peptide p53 (aa 317-320) *FL; read-out: NAD Km; cited from earlier work
SIRT1 [7] = target: T1, SIRT1; conditions: Sirt1, Fluorescent; peptide p53 (aa 379-382) *FL; read-out: NAD Km; cited from earlier work
SIRT1 [8] = target: T1, SIRT1; test: Effect of compounds on the Km of SIRT1 for Acetylated Peptide Substrate (mass spectrometry); format: biochemical; conditions: vs DMSO Km
NCI-H358 cells = test: Western blot of mitochondrial mass biomarkers; format: cell-based, human; conditions: 48 hours; 0, 1, 10 or 100 uM
Protocol: Western blots were conducted to correlate an observed increase in cellular ATP levels upon exposure of cells to a sirtuin activating compound to an increase in mitochondrial mass. […] Cell lysates were then prepared and specific mitochondrial proteins were quantitated by western analysis using antibodies specific to the following proteins: Succinate-Ubiquinol Oxidoreductase (Mitochondrial Complex II Protein, mouse monoclonal, InVitrogen, Cat. #A11142); ATP synthase F1F0 (Mitochondrial Complex V Protein, mouse monoclonal, InVitrogen, Cat.# A21350); NADH-Ubiquinol Oxidoreductase (Mitochondrial Complex I Protein, mouse monoclonal, InVitrogen, Cat. #A21344). Normalization was to alpha tubulin using a rabbit polyclonal (Santa Cruz Biotech, Cat # SC-9104). Secondary antibody used for specific protein detection was AlexaFluor 680 conjugated […] IgG (Goat) (Rockland Immunochemicals, Cat.#610-132-121) and for tubulin expression was IRDye 800 goat anti-mouse IgG (InVitrogen Cat. # A21076). Protein quantification was preformed using infrared dye labeled secondary antibodies followed by blot scan using the Licor® Odyssey® scanner.

Km (SIRT1 [2]) [µM] | decrease of Km for peptide substrate (SIRT1 [8]; 1.2 μM resveratrol) [%] | decrease of Km for peptide substrate (SIRT1 [8]; 3.7 μM resveratrol) [%] | decrease of Km for peptide substrate (SIRT1 [8]; 11 μM resveratrol) [%] | decrease of Km for peptide substrate (SIRT1 [8]; 33 μM resveratrol) [%] | decrease of Km for peptide substrate (SIRT1 [8]; 100 μM resveratrol) [%] | Compound | Km (SIRT1 [1]) [µM] | Km (SIRT1 [3]) [µM] | Km (Sirt2 [4]) [µM] | Km (Sirt3) [mM] | Km (SIRT1 [5]; peptide p53 (aa 368-386) *FL) [µM] | Km (SIRT1 [5]; peptide p53 (aa 368-386) no FL) [µM] | Km (Sirt2 [6]) [µM] | Km (SIRT1 [7]) [µM] | levels of mitochondrial mass biomarkers (NCI-H358 cells)
220 | – | – | – | – | – | NC(=O)c1ccc[n+]([C@@H]2O[C@H](COP(=O)([O-])OP(=O)(O)OC[C@H]3O[C@@H](n4cnc5c(N)ncnc54)[C@H](O)[C@@H]3O)[C@@H](O)[C@H]2O)c1 [NAD^+] | 90 | 133 | 42 | 2.03 | 192 | 132 | 547 | 558 | –
– | 2 | 14 | 14 | 32 | 46 | Oc1ccc(C=Cc2cc(O)cc(O)c2)cc1 [resveratrol] | – | – | – | – | – | – | – | – | increases in the levels of mitochondrial mass biomarkers
